Test results from paper PMC9060491, “Biochemical and structural characterization of an aromatic ring–hydroxylating dioxygenase for terephthalic acid catabolism” (Proceedings of the National Academy of Sciences of the …, 2022).

Legend:
TPADO reductase (TphA1) = target: T1, TPADO reductase (TphA1) (Comamonas sp., UniProt Q3C1E0); experiment: HPLC of TPADO/reductase reaction; assay type: biochemical; details: electron donor in the coupled system with TPADO and TPA; NADPH not used
T1 construct: gene tphA1I; C-terminal His6, expressed in E. coli; plant-type [2Fe-2S], flavin

[1] = target: T2, terephthalate dioxygenase (TPADO; TphA2/TphA3) (Comamonas sp., UniProt Q3C1D5); experiment: HPLC end point, NADH and analog consumption; assay type: biochemical; details: uncoupler, not oxygenated; 90 min in air, limiting NADH, with TphA1 reductase
T2 construct: gene tphA2II; alpha with C-terminal His6, coexpressed with beta from pET-DUET in E. coli; alpha3beta3 heterohexamer, 196 kDa; Rieske [2Fe-2S] and mononuclear Fe(II); with Terephthalate 1,2-dioxygenase, terminal oxygenase component subunit beta

[2] = substrate: O=C(O)c1ccc(C(=O)O)cc1; experiment: steady-state kinetics, Michaelis-Menten fit; assay type: biochemical, Comamonas sp.; details: ambient air (O2 not shown saturating), NADH, with TphA1 reductase

T2 sequence (Q3C1E2 whole entry, one chain of several, further chain): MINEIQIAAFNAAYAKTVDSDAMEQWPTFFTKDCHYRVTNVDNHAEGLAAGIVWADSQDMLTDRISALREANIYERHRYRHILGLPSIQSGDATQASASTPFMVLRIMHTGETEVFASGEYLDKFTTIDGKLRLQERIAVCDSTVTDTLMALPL
T1 sequence (Q3C1E0 whole entry): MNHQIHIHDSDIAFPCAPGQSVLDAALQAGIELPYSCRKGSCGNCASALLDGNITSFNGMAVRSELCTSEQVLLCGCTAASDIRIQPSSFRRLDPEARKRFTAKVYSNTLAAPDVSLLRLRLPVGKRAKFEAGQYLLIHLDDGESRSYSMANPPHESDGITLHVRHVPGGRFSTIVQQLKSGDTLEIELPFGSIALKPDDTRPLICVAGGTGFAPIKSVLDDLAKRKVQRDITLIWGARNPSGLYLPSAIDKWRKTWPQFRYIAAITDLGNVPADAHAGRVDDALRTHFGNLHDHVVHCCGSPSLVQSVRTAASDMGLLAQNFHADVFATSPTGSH

Q: How did the “HPLC of TPADO/reductase reaction” value (TPADO reductase (TphA1)) turn out when `NC(=O)C1=CN([C@@H]2O[C@H](COP(=O)(O)OP(=O)(O)OC[C@H]3O[C@@H](n4cnc5c(N)ncnc54)[C@H](O)[C@@H]3O)[C@@H](O)[C@H]2O)C=CC1` [NADH] was run?
A: specifically in the presence of nicotinamide adenine dinucleotide hydride (NADH) rather than its phosphorylated analog

Q: For `O=C(O)c1ccc([N+](=O)[O-])cc1` [4-NBA, 4-nitrobenzoic acid], which “% NADH consumption” value [1] is on record?
A: 100%

B1: terephthalate dioxygenase (TPADO; TphA2/TphA3) (Comamonas sp.) (protein)
chain: MQESIIQWHGATNTRVPFGIYTDTANADQEQQRIYRGEVWNYLCLESEIPGAGDFRTTFAGETPIVVVRDADQEIYAFENRCAHRGALIALEKSGRTDSFQCVYHAWSYNRQGDLTGVAFEKGVKGQGGMPASFCKEEHGPRKLRVAVFCGLVFGSFSEDVPSIEDYLGPEICERIERVLHKPVEVIGRFTQKLPNNWKLYFENVKDSYHASLLHMFFTTFELNRLSQKGGVIVDESGGHHVSYSMIDRGAKDDSYKDQAIRSDNERYRLKDPSLLEGFEEFEDGVTLQILSVFPGFVLQQIQNSIAVRQLLPKSISSSELNWTYLGYADDSAEQRKVRLKQANLIGPAGFISMEDGAVGGFVQRGIAGAANLDAVIEMGGDHEGSSEGRATETSVRGFWKAYRKHMGQEMQA
notes: alpha with C-terminal His6, coexpressed with beta from pET-DUET in E. coli; alpha3beta3 heterohexamer, 196 kDa; Rieske [2Fe-2S] and mononuclear Fe(II); with Terephthalate 1,2-dioxygenase, terminal oxygenase component subunit beta
Q: With B1 as the molecule, how does the Km [2] read?
A: 9.6 ± 1 µM

Q: And the kcat [2]?
A: 0.2 ± 0.005 s⁻¹
